Experimental data reported in publication PMC2430034, “Structural Development Studies of Subtype-Selective Ligands for Peroxisome Proliferator-Activated Receptors (PPARs) Based on the 3,4-Disubstituted Phenylpropanoic Acid Scaffold as a Versatile Template” (PPAR Research, 2008).

Assays:
Assay type in all cases: cell-based
VDR = molecular target: T1, VDR (Homo sapiens, UniProt P11473); test: Nuclear receptor cross-reactivity transactivation, VDR; conditions: concentrations up to 300 nM (Figure 7)
T1 construct: expressed in transfected cells
T1 sequence (P11473 1-427): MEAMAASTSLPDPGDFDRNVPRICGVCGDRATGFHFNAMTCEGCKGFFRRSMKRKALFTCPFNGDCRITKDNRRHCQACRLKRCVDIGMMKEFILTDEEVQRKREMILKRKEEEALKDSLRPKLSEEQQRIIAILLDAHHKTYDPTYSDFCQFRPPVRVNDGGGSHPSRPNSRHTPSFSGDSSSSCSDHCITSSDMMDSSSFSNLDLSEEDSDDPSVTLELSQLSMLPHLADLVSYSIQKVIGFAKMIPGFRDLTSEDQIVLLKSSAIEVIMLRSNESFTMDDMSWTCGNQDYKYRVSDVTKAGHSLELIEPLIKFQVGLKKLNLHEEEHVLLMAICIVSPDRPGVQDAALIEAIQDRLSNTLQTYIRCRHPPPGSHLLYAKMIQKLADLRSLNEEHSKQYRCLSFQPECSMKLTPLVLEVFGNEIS

PPARγ [1] = molecular target: T2, PPARγ (Homo sapiens, UniProt P37231); test: Nuclear receptor cross-reactivity transactivation, PPARγ; conditions: concentrations up to 300 nM (Figure 7)
T2 construct: expressed in transfected cells
T2 sequence (P37231 1-505): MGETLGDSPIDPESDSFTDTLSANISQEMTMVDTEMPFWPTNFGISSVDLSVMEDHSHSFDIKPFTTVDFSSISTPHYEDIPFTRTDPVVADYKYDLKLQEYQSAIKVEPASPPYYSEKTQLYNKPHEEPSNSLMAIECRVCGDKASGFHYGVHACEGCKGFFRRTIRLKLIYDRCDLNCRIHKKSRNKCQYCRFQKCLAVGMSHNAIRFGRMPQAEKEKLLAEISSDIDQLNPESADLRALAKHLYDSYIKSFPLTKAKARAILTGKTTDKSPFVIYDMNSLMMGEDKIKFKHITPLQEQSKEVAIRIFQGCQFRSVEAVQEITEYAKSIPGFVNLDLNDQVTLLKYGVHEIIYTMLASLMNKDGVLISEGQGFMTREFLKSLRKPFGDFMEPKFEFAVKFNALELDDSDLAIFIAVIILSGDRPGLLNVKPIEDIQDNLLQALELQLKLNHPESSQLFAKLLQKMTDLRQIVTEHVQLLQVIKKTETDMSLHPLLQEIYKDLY

RARα = molecular target: T3, RARα (Homo sapiens, UniProt P10276); test: Nuclear receptor cross-reactivity transactivation, RARα; conditions: concentrations up to 300 nM (Figure 7)
T3 construct: expressed in transfected cells
T3 sequence (P10276 1-462): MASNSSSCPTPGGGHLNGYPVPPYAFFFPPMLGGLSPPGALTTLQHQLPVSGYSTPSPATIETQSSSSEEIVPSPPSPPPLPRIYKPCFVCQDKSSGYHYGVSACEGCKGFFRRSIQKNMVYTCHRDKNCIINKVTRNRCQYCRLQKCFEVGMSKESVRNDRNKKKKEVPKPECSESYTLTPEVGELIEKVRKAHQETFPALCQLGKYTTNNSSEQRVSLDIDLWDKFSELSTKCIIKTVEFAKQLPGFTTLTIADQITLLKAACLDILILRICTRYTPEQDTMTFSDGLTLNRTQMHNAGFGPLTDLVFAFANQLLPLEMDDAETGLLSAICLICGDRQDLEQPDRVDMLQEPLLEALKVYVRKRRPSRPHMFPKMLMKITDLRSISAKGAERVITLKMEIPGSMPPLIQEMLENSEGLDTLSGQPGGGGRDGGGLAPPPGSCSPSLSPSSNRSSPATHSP

RXRα = molecular target: T4, RXRα (Homo sapiens, UniProt P19793); test: Nuclear receptor cross-reactivity transactivation, RXRα; conditions: concentrations up to 300 nM (Figure 7)
T4 construct: expressed in transfected cells
T4 sequence (P19793 1-462): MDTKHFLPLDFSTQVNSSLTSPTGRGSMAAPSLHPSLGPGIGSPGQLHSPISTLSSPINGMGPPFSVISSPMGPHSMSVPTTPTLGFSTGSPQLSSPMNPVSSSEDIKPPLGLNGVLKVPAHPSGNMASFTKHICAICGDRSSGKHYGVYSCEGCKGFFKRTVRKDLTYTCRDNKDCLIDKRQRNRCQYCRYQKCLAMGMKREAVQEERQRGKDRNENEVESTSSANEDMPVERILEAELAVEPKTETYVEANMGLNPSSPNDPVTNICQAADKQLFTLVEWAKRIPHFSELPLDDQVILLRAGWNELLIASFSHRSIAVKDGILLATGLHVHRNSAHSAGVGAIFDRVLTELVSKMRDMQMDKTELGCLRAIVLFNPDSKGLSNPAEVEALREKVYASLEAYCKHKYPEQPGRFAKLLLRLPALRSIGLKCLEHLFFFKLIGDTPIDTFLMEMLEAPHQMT

PPARγ [2] = molecular target: T5, PPARγ (Homo sapiens, UniProt P37231); test: cell-based; conditions: read-out: Transactivation activity EC50 PPARγ
T5 sequence (P37231 238-505 limits assumed): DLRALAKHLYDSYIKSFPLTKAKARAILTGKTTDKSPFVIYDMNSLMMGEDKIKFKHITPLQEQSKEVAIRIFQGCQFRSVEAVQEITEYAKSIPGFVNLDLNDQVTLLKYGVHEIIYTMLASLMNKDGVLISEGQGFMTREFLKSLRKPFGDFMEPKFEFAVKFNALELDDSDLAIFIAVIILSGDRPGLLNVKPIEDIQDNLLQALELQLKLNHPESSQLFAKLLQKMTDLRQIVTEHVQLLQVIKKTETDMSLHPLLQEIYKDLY

PPARδ = molecular target: T6, PPARδ (Homo sapiens, UniProt Q03181); test: cell-based; conditions: PPAR-GAL4 chimeric receptors, transiently transfected HEK-293 cells; ia = inactive at 10 μM; read-out: Transactivation activity EC50 PPARδ
T6 sequence (Q03181 171-441 limits assumed): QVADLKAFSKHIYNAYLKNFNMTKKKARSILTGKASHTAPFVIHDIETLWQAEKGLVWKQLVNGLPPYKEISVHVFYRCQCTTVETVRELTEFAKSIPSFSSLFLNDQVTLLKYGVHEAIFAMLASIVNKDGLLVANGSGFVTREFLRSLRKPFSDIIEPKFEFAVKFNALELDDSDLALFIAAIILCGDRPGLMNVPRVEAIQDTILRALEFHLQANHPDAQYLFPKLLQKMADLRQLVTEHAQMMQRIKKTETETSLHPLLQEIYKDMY

PPARα [3] = molecular target: T7, PPARα (Homo sapiens, UniProt Q07869); test: PPARα-GAL4 chimeric receptor transactivation in HEK-293 cells; conditions: PPAR-GAL4 chimeric receptors, transiently transfected HEK-293 cells; ia = inactive at 10 μM
T7 sequence (Q07869 200-468 limits assumed): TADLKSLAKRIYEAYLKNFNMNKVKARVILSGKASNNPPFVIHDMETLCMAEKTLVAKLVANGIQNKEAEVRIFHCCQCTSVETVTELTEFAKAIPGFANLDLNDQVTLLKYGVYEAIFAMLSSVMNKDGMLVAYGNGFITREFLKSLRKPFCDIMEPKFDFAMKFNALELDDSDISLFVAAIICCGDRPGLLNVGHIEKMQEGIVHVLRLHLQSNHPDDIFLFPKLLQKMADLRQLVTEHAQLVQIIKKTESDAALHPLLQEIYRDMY

LXRα = molecular target: T8, LXRα (Homo sapiens, UniProt Q13133); test: Nuclear receptor cross-reactivity transactivation, LXRα; conditions: concentrations up to 300 nM (Figure 7)
T8 construct: expressed in transfected cells
T8 sequence (Q13133 1-447): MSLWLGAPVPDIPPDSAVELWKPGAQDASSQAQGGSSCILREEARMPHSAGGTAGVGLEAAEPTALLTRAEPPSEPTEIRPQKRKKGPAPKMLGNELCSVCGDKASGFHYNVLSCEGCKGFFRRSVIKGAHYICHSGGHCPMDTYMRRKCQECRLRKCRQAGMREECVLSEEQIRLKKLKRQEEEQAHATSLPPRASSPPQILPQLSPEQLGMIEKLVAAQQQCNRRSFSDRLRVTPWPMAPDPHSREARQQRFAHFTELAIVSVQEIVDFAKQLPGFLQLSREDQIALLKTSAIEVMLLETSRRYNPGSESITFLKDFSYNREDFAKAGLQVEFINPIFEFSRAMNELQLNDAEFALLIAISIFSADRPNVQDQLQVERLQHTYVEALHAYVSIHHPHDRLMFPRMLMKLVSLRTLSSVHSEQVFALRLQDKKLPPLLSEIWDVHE

PPARα [4] = molecular target: T9, PPARα (Rattus norvegicus, UniProt P37230); test: Rat PPARα transactivation (species differences); conditions: CHO-K1 cells (footnote of Table 1)
T9 construct: expressed in transfected cells
T9 sequence (P37230 1-468): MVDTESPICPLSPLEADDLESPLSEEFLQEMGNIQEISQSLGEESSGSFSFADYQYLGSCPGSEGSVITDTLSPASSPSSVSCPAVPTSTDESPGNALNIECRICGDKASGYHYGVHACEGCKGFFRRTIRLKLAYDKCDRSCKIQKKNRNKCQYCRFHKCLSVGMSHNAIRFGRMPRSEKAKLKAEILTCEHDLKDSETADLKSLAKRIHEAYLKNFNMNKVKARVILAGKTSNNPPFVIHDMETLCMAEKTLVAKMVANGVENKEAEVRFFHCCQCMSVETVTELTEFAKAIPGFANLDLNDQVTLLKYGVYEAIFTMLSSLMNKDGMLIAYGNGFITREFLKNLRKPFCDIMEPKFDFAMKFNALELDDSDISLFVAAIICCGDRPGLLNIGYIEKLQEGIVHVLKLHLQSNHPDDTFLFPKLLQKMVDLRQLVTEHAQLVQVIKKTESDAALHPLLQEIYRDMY

PPARα [5] = molecular target: T7, PPARα; test: PPARα-GAL4 chimeric receptor transactivation in CHO-K1 cells; conditions: human PPARα; CHO-K1 cells (footnote of Table 1); read-out: Transactivation activity EC50 PPARα Human
PPARα [6] = molecular target: T10, PPARα (Canis lupus familiaris, UniProt Q95N78); test: Dog PPARα transactivation (species differences); conditions: CHO-K1 cells (footnote of Table 1)
T10 construct: expressed in transfected cells
T10 sequence (Q95N78 1-468): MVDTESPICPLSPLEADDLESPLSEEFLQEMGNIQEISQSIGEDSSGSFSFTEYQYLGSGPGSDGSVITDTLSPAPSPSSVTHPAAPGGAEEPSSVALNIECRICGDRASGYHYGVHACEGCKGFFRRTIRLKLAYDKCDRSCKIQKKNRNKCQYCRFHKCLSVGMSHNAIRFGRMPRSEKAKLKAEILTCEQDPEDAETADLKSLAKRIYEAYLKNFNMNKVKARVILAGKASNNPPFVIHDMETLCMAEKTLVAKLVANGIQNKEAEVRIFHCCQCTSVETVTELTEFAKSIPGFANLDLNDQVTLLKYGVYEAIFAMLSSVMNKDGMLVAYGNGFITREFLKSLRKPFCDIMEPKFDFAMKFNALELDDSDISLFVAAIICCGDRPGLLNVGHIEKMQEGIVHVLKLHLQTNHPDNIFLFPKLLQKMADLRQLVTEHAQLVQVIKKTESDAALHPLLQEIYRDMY

| Compound | activation of VDR (VDR) | activation of PPARγ (PPARγ [1]) | activation of RARα (RARα) | activation of RXRα (RXRα) | EC50 (PPARγ [2]) | EC50 (PPARδ) | EC50 (PPARα [3]) | activation of LXRα (LXRα) | EC50 (PPARα [4]) | EC50 (PPARα [5]) | EC50 (PPARα [6]) |
| --- | --- | --- | --- | --- | --- | --- | --- | --- | --- | --- | --- |
| CCCCOc1ccc(C[C@H](CC)C(=O)O)cc1CNC(=O)c1ccc(C(F)(F)F)cc1F [Compound 65, (S)-2-{3-[(2-fluoro-4-trifluoromethylbenzoylamino)methyl]-4-buthoxy-benzyl}butyric acid] | did not significantly activate | did not significantly activate | did not significantly activate | did not significantly activate | 1100 nM | 0.91 nM | 250 nM | did not significantly activate |  |  |  |
| CC[C@@H](Cc1ccc(OC)c(C(=O)NCc2ccc(C(F)(F)F)cc2)c1)C(=O)O [KCL, (S)-2-[4-methoxy-3-(4-trifluoromethylbenzylcarbamoyl)phenylmethyl]butyric acid] |  |  |  |  |  |  |  |  | 5200 nM | 60 nM | 160 nM |
